Values joined by “and” are separate entries in the source; they are usually repeats but may differ in a detail not shown here. Equal values may be shown once.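 A five-concentration, 48-hour dose response in 96-well plates underlies each endpoint, interpolated linearly between surrounding concentrations. GI50 marks 50% less growth. TGI is the concentration that stops growth completely.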
Legend:
Test in all cases: growth of human tumour cells (NCI), 48 h
[1] = system: HL-60(TB) leukemia
[2] = system: UACC-62 melanoma
[3] = system: NCI-H522 lung
[4] = system: SK-MEL-2 melanoma
[5] = system: HCT-15 colon
[6] = system: ACHN renal
[7] = system: MDA-MB-435
[8] = system: M14 melanoma
[9] = system: PC-3 prostate
[10] = system: OVCAR-8 ovarian

| Structure (SMILES) | GI50 [1] [µM] | TGI [1] [µM] | GI50 [2] [µM] | TGI [2] [µM] | GI50 [3] [µM] | TGI [3] [µM] | GI50 [4] [µM] | TGI [4] [µM] | GI50 [5] [µM] | TGI [5] | GI50 [6] [µM] | TGI [6] [µM] | GI50 [7] [µM] | TGI [7] | GI50 [8] [µM] | TGI [8] [µM] | GI50 [9] [µM] | TGI [9] | GI50 [10] [µM] | TGI [10] |
| --- | --- | --- | --- | --- | --- | --- | --- | --- | --- | --- | --- | --- | --- | --- | --- | --- | --- | --- | --- | --- |
| COc1cc2c3c(n(CCCCN)c(=O)c2cc1OC)-c1cc2c(cc1C3=O)OCO2 | 1.88 | 15.4 | 0.216 | 1.04 | 0.259 | 9.89 | 6.3 | 18 | 0.805 | 9.81 µM | 0.38 | 1.35 | 2.29 | 7.32 µM | 1.36 | 6.22 | 0.159 | 0.583 µM | 0.71 | 13.1 µM |
| NC(=O)c1ccc(I)c(N=O)c1 | 29 | 85.5 | 40.5 | > 100 | 21.4 | 55.3 | 31.3 | 87.8 | 30 | > 100 µM | 30.8 | > 100 | 29.6 | 89.5 µM | 30.5 | 83.1 |  |  | 25.8 | 60.6 µM |
| Cc1cc(NCCCCCCNc2cc(C)nc3cc(N(C)C)ccc23)c2ccc(N(C)C)cc2n1 |  | 8.52 |  | 21.4 |  | > 100 |  | > 100 |  | > 100 µM |  | > 100 |  |  |  | > 100 |  |  |  | > 100 µM |
| Cc1cc2c(C)nn(Cc3ccccc3)c2c(C(N)=O)c1C |  |  |  | > 100 |  | > 100 |  | > 100 |  | > 100 µM |  | > 100 |  |  |  | > 100 |  |  |  | > 100 µM |
| CCN(CC)CCOc1ccc(CCc2cc(OC)c(OC)c(OC)c2)cc1 |  | 44.4 |  | 66.3 |  | > 100 |  |  |  | > 100 µM |  | > 100 |  |  |  | 34.3 |  |  |  | > 100 µM |
| O=C1NC2(CCCCCC2)C2CCCCCCC12O (configuration not stated) |  | > 100 |  | > 100 |  | > 100 |  | > 100 |  | > 100 µM |  | > 100 |  |  |  | > 100 |  |  |  | > 100 µM |
| Clc1ccc(N=Nc2nc3ccccc3nc2N=Nc2ccc(Cl)cc2Cl)c(Cl)c1 |  | 90 |  |  |  | > 100 |  | > 100 |  | > 100 µM |  | > 100 |  |  |  |  |  |  |  | > 100 µM |
| O=c1oc(Cl)c(Cl)c2ccccc12 |  |  | 32.9 | > 100 | > 100 | > 100 | 14.1 | 44.1 | 23.1 | 61.3 µM | 16.1 | 39.7 | 22.3 | 45.9 µM | 41.3 | > 100 | 17.8 | 35.2 µM | 47.8 | > 100 µM |
| COc1cc([C@@H]2c3cc4c(cc3[C@@H](OC(=O)c3ccc(N)cc3)C3COC(=O)[C@@H]32)OCO4)cc(OC)c1O (some centres not stated) |  | 22.2 |  | 19.5 |  | 5.35 |  | 59.6 |  | 56.1 µM |  | 28.2 |  |  |  | > 95 |  |  |  | 78.5 µM |
| N.N.N.N.N.[Cl-].[Co+3].c1ccc(-c2nn[n-]n2)cc1 | > 100 | > 100 | > 100 | > 100 |  |  | > 100 | > 100 | > 100 | > 100 µM | > 100 | > 100 |  |  | > 100 | > 100 |  |  | > 100 | > 100 µM |
| CCC(C)[C@H]1O[C@]2(C=C[C@@H]1C)C[C@@H]1C[C@@H](C/C=C(\C)[C@@H](OC3C[C@H](OC)C(O[C@H]4C[C@H](OC)[C@@H](O)[C@H](C)O4)[C@H](C)O3)[C@@H](C)/C=C/C=C3\CO[C@@H]4[C@H](O)C(C)=C[C@@H](C(=O)O1)[C@]34O)O2 (some centres not stated) | 1.16 | 2.59 | 1.53 | 7.64 | 0.89 | 1.93 | 1.24 | 2.6 | 1.72 | 6.79 µM | 1.72 | 5.63 |  |  | 1.04 | 2.33 |  |  | 1.72 | 9.73 µM |
| c1ccc(CN2CCC3(CC2)SSC2(CCN(Cc4ccccc4)CC2)S3)cc1 |  | > 100 |  | > 100 |  |  |  | > 100 |  | > 100 µM |  | > 100 |  | > 100 µM |  | > 100 |  | > 100 µM |  | > 100 µM |
| O=C(Nc1ccncc1)C(=O)c1cn(Cc2ccc(Cl)cc2)c2ccccc12 | 0.0327 | 0.237 | 0.0514 | > 100 |  |  |  |  | 0.0408 | > 100 µM | 0.082 | > 100 | < 0.01 | 0.044 µM | 0.048 | > 100 | 0.0419 | > 100 µM | 0.0549 | > 100 µM |
| c1ccc(C(c2ccccc2)c2cccnc2)cc1 |  |  |  | > 100 |  |  |  | > 100 |  | > 100 µM |  | > 100 |  |  |  | > 100 |  |  |  | > 100 µM |
| O=C(NC(=O)c1cn(CCN(CCO)C(=O)NCCCCCCNC(=O)N(CCO)CCn2cc(C(=O)NC(=O)OCc3ccccc3)c(=O)[nH]c2=O)c(=O)[nH]c1=O)OCc1ccccc1 |  | > 100 |  | > 100 |  |  |  | > 100 |  | > 100 µM |  | > 100 |  |  |  | > 100 |  |  |  | > 100 µM |
| C[C@]12CCC(=O)C=C1CC[C@@H]1C2CC[C@]2(C)Nc3c(cnn3-c3ccccc3)CC12 (some centres not stated) |  | > 100 |  | > 100 |  |  |  | > 100 |  | > 100 µM |  | > 100 |  |  |  | > 100 |  |  |  | > 100 µM |
| COC1/C=C/C(C)C(C(C)C(OC)C(C)CCC(=O)C(C)C(C/C=C/N(C)C=O)OC)OC(=O)/C=C/C=C(\C)CC(OC)CC2=CC(=O)O[C@H](C2)C(C)C(OC)CC(OC)/C=C/C(C)C(OC)C1 (some centres not stated) |  |  | 0.0515 |  |  |  |  | 0.0399 | 0.0142 | 0.27 µM and 0.0329 µM | 0.0282 |  | 0.0303 | 0.472 µM and 0.311 µM | 0.0215 | 0.0686 |  | 0.0387 µM and 0.0417 µM | 0.0227 | 0.0768 µM and 0.196 µM |
| O=c1c2ccccc2c(=O)n2n1CC=CC2 |  | > 100 |  | > 100 |  | > 100 |  | > 100 |  | > 100 µM |  | > 100 |  |  |  | > 100 |  |  |  | > 100 µM |
| CCOC1=C2C(=O)OC(=O)C2C2CCCCC2=C1 (configuration not stated) |  | > 100 |  | > 100 |  | > 100 |  | > 100 |  | > 100 µM |  |  |  |  |  | > 100 |  |  |  | > 100 µM |

— PubChem BioAssay (NCI)
